target: T1, 5-lipoxygenase (Rattus norvegicus, UniProt P12527); experiment: In vitro inhibition of 5-lipoxygenase (20,000×g supernatant from homogenized RBL-1 cells, radiolabeled arachidonic acid); assay type: biochemical; conditions: 20,000×g supernatant of RBL-1 cells; triplicate; read-out: IC50 (in vitro inhibitory potency against 5-lipoxygenase)
T1 construct: 20,000×g supernatant from 1.5 million homogenized RBL-1 cells; endogenous in cells; host or cells: RBL-1 cells (20,000×g supernatant of homogenate)
T1 sequence (P12527 1-673): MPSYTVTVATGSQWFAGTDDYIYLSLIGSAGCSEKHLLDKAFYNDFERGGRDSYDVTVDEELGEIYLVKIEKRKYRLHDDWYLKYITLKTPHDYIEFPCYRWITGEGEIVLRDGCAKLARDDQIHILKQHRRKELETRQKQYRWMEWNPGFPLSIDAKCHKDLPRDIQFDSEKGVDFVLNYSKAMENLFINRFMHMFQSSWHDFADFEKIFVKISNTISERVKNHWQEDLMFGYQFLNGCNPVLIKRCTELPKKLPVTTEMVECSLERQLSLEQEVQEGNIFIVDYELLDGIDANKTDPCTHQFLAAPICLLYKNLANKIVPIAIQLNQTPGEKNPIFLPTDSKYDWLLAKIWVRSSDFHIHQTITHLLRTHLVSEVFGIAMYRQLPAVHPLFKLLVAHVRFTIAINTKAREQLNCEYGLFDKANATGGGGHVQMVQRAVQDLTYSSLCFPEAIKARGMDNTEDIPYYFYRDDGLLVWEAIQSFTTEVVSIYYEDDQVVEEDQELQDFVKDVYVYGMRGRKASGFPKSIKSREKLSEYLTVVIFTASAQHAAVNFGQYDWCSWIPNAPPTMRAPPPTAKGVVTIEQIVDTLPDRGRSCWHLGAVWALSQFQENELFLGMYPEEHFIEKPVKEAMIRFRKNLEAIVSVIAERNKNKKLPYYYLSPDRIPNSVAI
Description: Assays to determine 5-lipoxygenase inhibitory activity were performed in […] incubations containing the 20,000×g supernatant from 1.5 million homogenized RBL-1 cells and various concentrations of the test compound. Reactions were initiated by addition of radiolabeled arachidonic acid and terminated by acidification and ether extraction. Reaction products were separated from nonconverted substrate by thin layer chromatography and measured by liquid scintillation spectroscopy. All incubations were performed in triplicate. Inhibition of 5-lipoxygenase activity was calculated as the ratio of the amount of product formed in the presence and absence of inhibitor. IC50 values (concentration of compound producing 50% enzyme inhibition) were calculated by linear regression analysis of percentage inhibition versus log inhibitor concentration plots. (Dyer, R .D.; Haviv, F.; Hanel, A. M.; Bornemier, D. A.; Carter, G. W. Fed. Proc., Fed. Am. Soc. Exp. Biol. 1984, 43, 1462A).

IC50 [nM]	Structure (SMILES)
400	NC(=O)N(O)C[C@@H]1C[C@H]1c1cccc(Oc2ccccn2)c1 (relative stereo) [Example 48, N-(1-trans-(2-(3-(2-pyridyloxy)phenyl)cyclopropyl)methyl)-N-hydroxyurea]
100	CN(O)C(=O)[C@@H]1C[C@H]1c1cccc(Oc2ccccc2)c1 (relative stereo) [Example 30]
130	CC([C@@H]1C[C@H]1c1ccc(OCc2ccccc2)cc1)N(O)C(N)=O (stereo partly drawn) [Example 14, N-(1-trans-(2-(4-(phenylmethoxy)phenyl)cyclopropyl)ethyl)-N-hydroxyurea]
300	CC(=O)N(O)C(C)[C@@H]1C[C@H]1c1ccc2ccccc2c1 (stereo partly shown) [Example 57]
1000	CC(C)Oc1cccc([C@@H]2C[C@H]2CN(O)C(N)=O)c1 (relative stereo) [Example 64]
300	NC(=O)N(O)C[C@@H]1C[C@H]1c1cccc(Oc2ccc(OCc3ccccc3)cc2)c1 (relative stereo) [Example 54, N-(1-trans-(2-(3-(4-benzyloxyphenoxy)phenyl)cyclopropyl)-methyl)-N-hydroxyurea]
30	CC(=O)N(O)C[C@@H]1C[C@H]1c1ccc(Br)cc1 (relative stereo) [Example 38, N-(1-trans-(2-(4-bromophenyl)cyclopropyl)methyl)-N-hydroxyacetamide]
200	Cc1ccc([C@@H]2C[C@H]2CN(O)C(N)=O)cc1Oc1ccccc1 (relative stereo) [Example 61, N-(1-trans-(2-(4-methyl-3-phenoxyphenyl)cyclopropyl)methyl)-N-hydroxyurea]
100	CC([C@H]1[C@H](c2ccccc2)C1(C)C)N(O)C(N)=O (stereo partly shown) [Example 24]
300	CC(=O)N(O)C[C@@H]1C[C@H]1c1ccc(C)cc1 (relative stereo) [Example 46, N-(1-trans-(2-(4-methylphenyl)cyclopropyl)methyl)-N-hydroxyacetamide]
400	NC(=O)N(O)C[C@@H]1C[C@H]1c1cccc(Oc2ccncc2)c1 (relative stereo) [Example 49, N-(trans-(2-(3-(4-pyridyloxy)phenyl)cyclopropyl)methyl)-N-hydroxyurea]
80	CC(C)Cc1ccc([C@@H]2C[C@H]2CN(O)C(N)=O)cc1 (relative stereo) [Example 20, N-(1-trans-(2-(4-(2-methyl-1-propyl)phenyl)cyclopropyl)-methyl)-N-hydroxyurea]
100	NC(=O)N(O)C[C@@H]1C[C@H]1c1cccc(Oc2ccc(F)cc2)c1 (relative stereo) [Example 50, N-(1-trans-(2-(3-(4-fluorophenoxy)phenyl)cyclopropyl)methyl)-N-hydroxyurea]
200	COc1ccc2cc([C@@H]3C[C@H]3CN(O)C(N)=O)ccc2c1 (relative stereo) [Example 18, N-(1-trans-(2-(6-methoxy-2-naphthyl)cyclopropyl)methyl)-N-hydroxyurea]
440	CC(C)Oc1ccc([C@@H]2C[C@H]2CN(O)C(N)=O)cc1Br (relative stereo) [Example 66, N-(1-trans-(2-(3-bromo-4-isopropoxyphenyl)cyclopropyl)-methyl)-N-hydroxyurea]
60	Cc1ccc(Oc2cccc([C@@H]3C[C@H]3CN(O)C(N)=O)c2)cc1 (relative stereo) [Example 51, N-(1-trans-(2-(3-(4-methylphenoxy)phenyl)cyclopropyl)methyl)-N-hydroxyurea]
100	COc1ccc(Oc2cccc([C@@H]3C[C@H]3CN(O)C(N)=O)c2)cc1 (relative stereo) [Example 53, N-(1-trans-(2-(3-(4-methoxyphenoxy)phenyl)cyclopropyl)-methyl)-N-hydroxyurea]
1600	NC(=O)N(O)C[C@@H]1C[C@H]1c1cccnc1 (relative stereo) [Example 42]
50	NC(=O)N(O)C[C@@H]1C[C@H]1c1ccc(OCc2ccccc2)cc1 (relative stereo) [Example 21, N-(1-trans-(2-(4-(phenylmethoxy)phenyl)cyclopropyl)methyl)-N-hydroxyurea]

IC50 [nM]	Structure (SMILES)
300	CC(C)c1ccc([C@@H]2C[C@H]2CN(O)C(N)=O)cc1 (relative stereo) [Example 63]
100	CC([C@@H]1C[C@H]1CCc1ccccc1)N(O)C(N)=O (stereo partly drawn) [Example 32, N-(1-trans-(2(2-phenylethyl)cyclopropyl)ethyl)-N-hydroxyurea]
1400	CN(O)C(=O)[C@@H]1C[C@H]1c1ccccc1 (relative stereo) [Example 31, N-methyl-N-hydroxy-trans-2-phenylcyclopropyl carboxamide]
400	CC(C)Oc1ccc([C@@H]2C[C@H]2CN(O)C(N)=O)cc1 (relative stereo) [Example 67, N-(1-trans-(2-(4-isopropoxyphenyl)cyclopropyl)methyl)-N-hydroxyurea]
60	NC(=O)N(O)C[C@@H]1C[C@H]1c1ccc(Oc2ccccc2)cc1 (relative stereo) [Example 36, N-(1-trans-(2-(4-phenoxyphenyl)cyclopropyl)methyl)-N-hydroxyurea]
7600	Cc1cccc([C@@H]2C[C@H]2CN(O)C(N)=O)n1 (relative stereo) [Example 62, N-(1-trans-(2-(6-methyl-2-pyridyl)cyclopropyl)methyl)-N-hydroxyurea]
5700	NC(=O)N(O)C[C@@H]1C[C@H]1c1ccncc1 (relative stereo) [Example 43, N-(1-trans-(2-(4-pyridyl)cyclopropyl)methyl)-N-hydroxyurea]
100	CC(=O)N(O)C(C)[C@@H]1C[C@H]1c1ccc(Br)cc1 (single isomer, unassigned) [Example 44, N-(1-trans-(2-(4-bromophenyl)cyclopropyl)ethyl)-N-hydroxyacetamide]
400	CC(Oc1ccc([C@@H]2C[C@H]2C(C)N(O)C(N)=O)cc1)c1ccccc1 (stereo partly drawn) [Example 7, N-(1-trans-(2-(4-(1-phenylethoxy)phenyl)cyclopropyl)ethyl)-N-hydroxyurea]
700	CC(=O)N(O)C(C)[C@@H]1C[C@H]1c1ccc(C)cc1 (stereo partly drawn) [Example 59, N-(1-trans-(2-(4-methylphenyl)cyclopropyl)ethyl)-N-hydroxyacetamide]
100	CC([C@@H]1C[C@H]1c1ccc(Oc2ccccc2)cc1)N(O)C(N)=O (stereo partly drawn) [Example 2, N-(1-trans-(2-(4-phenoxyphenyl)cyclopropyl)ethyl)-N-hydroxyurea]
200	Cc1cc([C@@H]2C[C@H]2CN(O)C(N)=O)ccc1Oc1ccccc1 (relative stereo) [Example 56, N-(1-trans-(2-(3-methyl-4-phenoxy)phenylcylclopropyl)methyl)-N-hydroxyurea]
300	CC([C@@H]1C[C@H]1c1ccc2ccccc2c1)N(O)C(N)=O (stereo partly drawn) [Example 45, N-(1-trans-((2-napthyl)cyclopropyl)ethyl)-N-hydroxyurea]
200	CNC(=O)N(O)C(C)[C@@H]1C[C@H]1c1cc2ccccc2s1 (stereo partly drawn) [Example 8, N-(1-trans-(2-(benzo[b]thien-2-yl)cyclopropyl)ethyl)-N-hydroxy-N'-methylure]
300	CC([C@@H]1C[C@H]1c1cc2ccccc2s1)N(O)C(N)=O (single isomer, unassigned) [Example 1a, N-(1-trans-(2-(benzo[b]thien-2-yl)cyclopropyl)ethyl)-N-hydroxyurea]
200	CC([C@@H]1C[C@H]1c1cc2ccccc2s1)N(O)C(N)=O (single isomer, unassigned) [Example 1b, N-(1-trans-(2-(benzo[b]thien-2-yl)cyclopropyl)ethyl)-N-hydroxyurea]
3600	CC(C1CC1c1ccco1)N(O)C(N)=O (stereo not drawn) [Example 65, N-(1-trans-(2-(2-furfuranyl)cyclopropyl)ethyl-N-hydroxyurea]
1500	COc1ccc([C@@H]2C[C@H]2CN(O)C(N)=O)cc1 (relative stereo) [Example 60, N-(1-trans-(2-(4-methoxyphenyl)cyclopropyl)methyl)-N-hydroxyurea]

Reference: patent publication US5120752A, “Cyclopropyl derivative lipoxygenase inhibitors” (Abbott Laboratories, priority 1990, dated 1992)
